Measurements from patent EP2167084B1, “AN ALLERGEN DOSAGE FORM COMPRISING AN ANTIHISTAMINE” (ALK-Abelló A/S, priority 2007, dated 2008).

Test: Cross-over, single-centre investigation of the effect of desloratidine on local adverse effects caused by Phleum pratense pollen extract (Grazax)
Type: in vivo, patients
Conditions: 2.5 mg, half the daily dose for a person above 12 years of age, given with Grazax
Text: Investigation of the effect of desloratidine on adverse effects such itching in or around the mouth and the lips, ithching throat, itching in the ears and eyes caused by Phleum pratense pollen extract
The study was is was a cross-over, single-centre investigation.
The patients participated on two single days (visit 1 and visit 2) separated by approximately two weeks to avoid development of tolerance due to Grazax treatment. The subjects received one Grazax 75,000 SQ-T on Visit 1 and if they reported treatment related local adverse events in the mouth and/or throat after intake they were eligible for Visit 2. If no treatment related adverse events were reported after Grazax intake on Visit 1 the subjects were excluded from the study. On visit 2, the subjects received 1 antihistamine (Aerius (Desloratadine) melting tablet 2.5 mg, i.e. orally-disintegrating tablet). Grazax was administered immediately after intake of antihistamine.
AEs were reported on AE pages. AEs were rated mild, moderate or severe. Furthermore, the subjects rated the AE severity on a Visual Analogue Scale (VAS). The AEs of interest were itching mouth, itching throat or other local reactions.
A total of 15 subjects attended visit 1. […] These were therefore eligible for visit 2. Key selection criteria were: • 1. […]

Clc1ccc2c(c1)CCc1cccnc1C2=C1CCNCC1 [desloratidine]
relief from the itching of the mouth and pharynx: sufficient to relieve most patients
